Laboratory results reported in US20170239351A1, “Therapeutic Combinations of a BTK Inhibitor, a PI3K Inhibitor, a JAK-2 Inhibitor, a PD-1 Inhibitor, and/or a PD-L1 Inhibitor” (Acerta Pharma B.V., priority 2014, published 2017).

Tests used:
B cell receptor = test: Whole blood B cell receptor signalling assay (anti-IgD, CD69 on CD19+ B cells); assay type: cell-based; settings: 2 h incubation, anti-human IgD 18 h
Method: Blood from four healthy donors was incubated for 2 hours with the compounds shown over a concentration range, and then stimulated with anti-human IgD [10 μg/mL] for 18 hours. The mean fluorescent intensity (MFI) of CD69 (and CD86, data not shown) on gated CD19+ B cells was measured by flow cytometry.

[1] = tested on: KPC derived mouse pancreatic cancer cells; test: Orthotopic pancreatic cancer model (KPC-derived cells); assay type: in vivo, C57BL/6 mice; settings: 15 mg/kg oral of each drug
Method: Orthotopic pancreatic cancer models in mice are clinically relevant, benefit from tissue site-specific pathology, and allow for study of metastasis. Qiu and Su, Methods Mol. Biol. 2013, 980, 215-223. A cell line derived from KrasG12D; Trp53R172H; Pdx1-Cre (KPC) mice was orthotopically implanted into the head of the pancreas after 35 passages. Based on the mice background from where the cell lines were generated, 1×10^6 cells were injected in C57BL/6 mice. Throughout the experiment, animals were provided with food and water ad libitum and subjected to a 12-h dark/light cycle. Animal studies were performed in accordance with the U.S. Public Health Service “Guidelines for the Care and Use of Laboratory Animals” (IACUC). After euthanization, pancreatic tumors were dissected out, weighed and single cell suspensions were prepared for flow cytometry analysis.
Results of the experiments are shown in FIG. 110, which illustrates tumor growth suppression in the orthotopic pancreatic cancer model. The statistical p-value (presumption against null hypothesis) is shown for each tested single active pharmaceutical ingredient and for the combination against the vehicle.
In this study, KrasG12D;Trp53R172H; Pdx1-Cre (KPC) derived mouse pancreatic cancer cells (10,000 cells) were injected into the pancreases of 24 female mice. After one week of expansion, drug treatment was started in mice developing pancreatic tumors.
Single cell suspensions from tumor samples were prepared as follows. Mouse tumor tissue was collected and stored in PBS/0.1% soybean trypsin inhibitor prior to enzymatic dissociation. […] Following surface staining, samples were acquired on a BD Fortessa and analyzed using FlowJo (Treestar) software.

NK cells = test: Antibody-stimulated NK cell degranulation (CD107a), flow cytometry; assay type: cell-based, human; settings: DHL-4 target cells
CD4^+ T cells = test: Th17 and Treg development from CD4+ T cells; assay type: cell-based
Method: Enriched CD4^+ T cells are plated on 24-well culture dishes that have been precoated 2 hr with 250 μL anti-TCRβ (0.5 μg/mL) plus anti-CD28 (5 μg/mL) at 37° C. in PBS. The cells are then supplemented with media containing BTK inhibitors along with the skewing cytokines as indicated in the following. The Th17 and Treg cultures are grown for 4 days before analysis. The cells are maintained for an additional 3 days with skewing cytokines (Th17; 20 ng/mL IL-6, 0.5 ng/mL TGF-β, 5 μg/mL IL-4, 5 μg/mL IFN-γ and Treg; 0.5 ng/mL TGF-β, 5 μg/mL IL-4, 5 μg/mL IFN-γ) and are supplemented with IL2 as a growth factor.

human platelets = test: GPVI (convulxin-induced) platelet aggregation; assay type: cell-based
Method: GPVI platelet aggregation was measured for Formula (XVIII) and Formula (XX-A) (ibrutinib). Blood was obtained from untreated humans, and platelets were purified from […] by centrifugation. Cells were resuspended to a final concentration of 350,000/μL in buffer containing 145 mmol/L NaCl, 10 mmol/L HEPES, 0.5 mmol/L Na2HPO4, 5 mmol/L KCl, 2 mmol/L MgCl2, 1 mmol/L CaCl2, and 0.1% glucose, at pH 7.4. Stock solutions of Convulxin (CVX) GPVI were prepared on the day of experimentation and added to platelet suspensions 5 minutes (37° C., 1200 rpm) before the induction of aggregation. Aggregation was assessed with a Chronolog Lumi-Aggregometer (model 540 VS; Chronolog, Havertown, Pa.) and permitted to proceed for 6 minutes after the addition of agonist. The results are reported as maximum percent change in light transmittance from baseline with platelet buffer used as a reference.
In FIG. 129, the results of CVX-induced (250 ng/mL) human platelet aggregation results before and 15 minutes after administration of the BTK inhibitors to 6 healthy individuals are shown.

CD8^+ T cell function [2] = test: IFN-γ level measurements for CD8+ T cell function; assay type: cell-based; settings: relative to vehicle
T helper 17 (Th17) cells = test: Effect on T helper 17 (Th17) cells; assay type: cell-based
CD8^+ T cells [3] = test: CD8+ T cell viability (LIVE/DEAD staining, 4 days); assay type: cell-based
Method: Total T cells were plated on anti-TCR and anti-CD28 coated wells in the presence of both BTK inhibitors. Neutral culture conditions were used that will not polarize T cells to a helper lineage. The cells are grown for 4 days and are then stained with anti-CD4, anti-CD8 and LIVE/DEAD reagent to determine if the drugs have selective effects on either the CD4^+ or CD8^+ cells. Statistical significance was calculated using the Mann Whitney T-test. […]

[4] = tested on: regulatory T cell (Treg) development; test: Regulatory T cell (Treg) development; assay type: cell-based
CD8^+ T cells [5] = test: Cytotoxic T cell (CTL) assay; assay type: cell-based; settings: 500 nM
Method: Without being bound by any theory, CD8^+ T cells have two primary effector functions: (1) produce large amounts of IFN-γ (which activates macrophages), and (2) cytolytic activity. […] The targets were B lymphoblasts from lipopolysaccharide (LPS) treated cultures. The assay was performed by incubating different ratios of effectors:targets for 4 hours.

Raji cells [6] = test: Antibody-dependent NK cell-mediated cytotoxicity, chromium release assay, Raji cells; assay type: cell-based; settings: 1 μM, rituximab, effector:target 25:1, 4 hours
CD8^+ T cell function [7] = test: Cytotoxicity assay for CD8+ T cell function; assay type: cell-based; settings: relative to vehicle
Raji cells [8] = test: Rituximab ADCC assay (51Cr release), healthy donor NK cells; assay type: cell-based, human; settings: 1 μM
[9] = tested on: human platelet-mediated thrombosis; set-up: species or system VWF HA1 mice (human platelets); settings: in vivo
Method: […]. Injury to the vessel wall of arterioles ([…] diameter) was performed using a pulsed nitrogen dye laser (440 nm, Photonic Instruments) applied through a 20× water-immersion Olympus objective (LUMPlanF1, 0.5 numerical aperature (NA)) of a Zeiss Axiotech vario microscope. Human platelet and wall interactions were visualized by fluorescence microscopy using a system equipped with a Yokogawa CSU-22 spinning disk confocal scanner, iXON EM camera, and 488 nm and 561 nm laser lines to detect BCECF-labeled and rhodamine-labeled platelets, respectively (Revolution XD, Andor Technology). The extent of thrombus formation was assessed for 2 minutes after injury and the area (μm^2) of coverage determined (Image IQ, Andor Technology).
. The BTK inhibitor-treated human platelets were fluorescently labeled and infused continuously through a catheter inserted into the femoral artery. Their behavior in response to laser-induced vascular injury was monitored in real time using two-channel confocal intravital microscopy (Furie and Furie, J. Clin. Invest. 2005, 115(12), 2255-62). Upon induction of arteriole injury untreated platelets rapidly formed thrombi with an average thrombus size of […] (mean±s.e.m.), as shown in FIG. 124 and FIG. 125. […]. […]. […]

CD8^+ T cell = test: CD8+ T cell viability; assay type: cell-based
relapsed/refractory CLL = settings: cited from earlier work

## C=CC(=O)Nc1cccc(Nc2nc(Nc3ccc(OCCOC)cc3)ncc2F)c1 [CC-292]
B cell receptor
  EC50: 121 nM

## C[C@H](Nc1ncnc2[nH]cnc12)c1cc2ccc(F)cc2nc1-c1ccccn1 [Formula (IX), (S)—N-(1-(7-fluoro-2-(pyridin-2-yl)quinolin-3-yl)ethyl)-9H-purin-6-amine, reference compound]
[1]
  tumor volume versus vehicle: statistically significant reductions in tumor volume

## C=CC(=O)N1CCC[C@@H](n2nc(-c3ccc(Oc4ccccc4)cc3)c3c(N)ncnc32)C1 [ibrutinib, 1-[(3R)-3-[4-amino-3-(4-phenoxyphenyl)-1H-pyrazolo[3,4-d]pyrimidin-1-yl]piperidin-1-yl]prop-2-en-1-one, reference compound]
NK cells
  inhibition of rituximab-stimulated NK cell degranulation: ~50%
CD4^+ T cells
  effect on Th17 and Treg development: profound inhibition of Th17 cells and an increase in Treg development
Human platelets
  GPVI platelet aggregation: significantly inhibits GPVI platelet aggregation
CD8^+ T cell function [2]
  CD8+ T cell function as measured by IFN-γ level: affects CD8^+ T cell function
T helper 17 (Th17) cells
  effect on Th17 cells: strongly inhibits Th17 cells
CD8^+ T cells [3]
  effect on CD8^+ T cell viability: strong, negative effect on CD8^+ T cell viability
[4]
  effect on Treg development: strongly increases Treg development
CD8^+ T cells [5]
  CD8^+ T cell function as % cytotoxicity: affects CD8^+ T cell function
  CD8^+ T cell function as IFN-γ levels: significant loss of function
Raji cells [6]
  antibody-dependent NK cell-mediated cytotoxicity (percent lysis of tumor cells): antagonizes antibody-dependent NK cell-mediated cytotoxicity
CD8^+ T cell function [7]
  CD8+ T cell function as measured by % cytotoxicity: affects CD8^+ T cell function
Raji cells [8]
  effect on rituximab-mediated ADCC: strongly inhibited
[9]
  effect on thrombus formation: interfere with thrombus formation
CD8^+ T cell
  effect on CD8+ T cell viability: strongly affects CD8^+ T cell viability at higher doses

## obinutuzumab: type II glycoengineered CD20 monoclonal antibody
relapsed/refractory CLL; Phase 1 portion (n=13)
  Grade 3 IRRs: 15%
  patients who experienced IRRs: all patients
relapsed/refractory CLL; Phase 2 portion
  IRR cases developing symptoms of hypotension: 60%
  hypotension cases that were Grade 3 reactions: 25%
  patients who developed IRR: 95%
relapsed/refractory CLL; monotherapy, Phase 1, previously treated CLL
  response rate: 62%
